Assay results taken from the NIST ThermoML archive (doi:10.1016/j.tca.2013.08.016).

Tests used:
[1] = refractive index (Na D-line) (dimensionless); conditions: 101.33 kPa, Liquid, Standard Abbe refractometry
[2] = refractive index (Na D-line) (dimensionless); φn = volume fraction of the nth substance listed; conditions: 101 kPa, Liquid, Standard Abbe refractometry

CCCC[n+]1cccc(C)c1.F[B-](F)(F)F [1-butyl-3-methylpyridinium tetrafluoroborate]
[1]
Conditions	refractive index
293.15 K	1.45248
303.15 K	1.44976
313.15 K	1.44706
323.15 K	1.44425

CCCC[n+]1cccc(C)c1.F[B-](F)(F)F [1-butyl-3-methylpyridinium tetrafluoroborate] + CCO
[2]
Conditions	refractive index
293.15 K, φ1 = 0.0895	1.3713
293.15 K, φ1 = 0.1467	1.3773
293.15 K, φ1 = 0.2062	1.38325
293.15 K, φ1 = 0.2725	1.38979
293.15 K, φ1 = 0.4637	1.4075
293.15 K, φ1 = 0.5588	1.41595
293.15 K, φ1 = 0.6583	1.4245
293.15 K, φ1 = 0.6935	1.42757
293.15 K, φ1 = 0.8285	1.43878
293.15 K, φ1 = 0.883	1.44311
293.15 K, φ1 = 0.928	1.4467
293.15 K, φ1 = 0.9641	1.44963
293.15 K, φ1 = 1	1.45248
303.15 K, φ1 = 0.0891	1.3672
303.15 K, φ1 = 0.1461	1.37333
303.15 K, φ1 = 0.2054	1.3794
303.15 K, φ1 = 0.2716	1.38602
303.15 K, φ1 = 0.4626	1.404
303.15 K, φ1 = 0.5577	1.41257
303.15 K, φ1 = 0.6572	1.42134
303.15 K, φ1 = 0.6925	1.42444
303.15 K, φ1 = 0.8278	1.43584
303.15 K, φ1 = 0.8825	1.44031
303.15 K, φ1 = 0.9277	1.4439
303.15 K, φ1 = 0.964	1.4469
303.15 K, φ1 = 1	1.44976
313.15 K, φ1 = 0.0887	1.36314
313.15 K, φ1 = 0.1477	1.36964
313.15 K, φ1 = 0.2047	1.37558
313.15 K, φ1 = 0.2706	1.3823
313.15 K, φ1 = 0.4614	1.40055
313.15 K, φ1 = 0.5565	1.40924
313.15 K, φ1 = 0.6561	1.4182
313.15 K, φ1 = 0.6914	1.42134
313.15 K, φ1 = 0.8271	1.43292
313.15 K, φ1 = 0.882	1.43752
313.15 K, φ1 = 0.9273	1.44114
313.15 K, φ1 = 0.9638	1.44418
313.15 K, φ1 = 1	1.44706
323.15 K, φ1 = 0.0883	1.35913
323.15 K, φ1 = 0.147	1.36572
323.15 K, φ1 = 0.2037	1.37173
323.15 K, φ1 = 0.2695	1.37856
323.15 K, φ1 = 0.4599	1.39714
323.15 K, φ1 = 0.555	1.40599
323.15 K, φ1 = 0.6548	1.41504
323.15 K, φ1 = 0.6902	1.41823
323.15 K, φ1 = 0.8263	1.42988
323.15 K, φ1 = 0.8814	1.43448
323.15 K, φ1 = 0.9269	1.43827
323.15 K, φ1 = 0.9636	1.44135
323.15 K, φ1 = 1	1.44425

CCCC[n+]1cccc(C)c1.F[B-](F)(F)F [1-butyl-3-methylpyridinium tetrafluoroborate] + CO
[2]
Conditions	refractive index
293.15 K, φ1 = 0.0958	1.34245
293.15 K, φ1 = 0.2025	1.35728
293.15 K, φ1 = 0.2756	1.36702
293.15 K, φ1 = 0.3528	1.37693
293.15 K, φ1 = 0.4508	1.38917
293.15 K, φ1 = 0.5501	1.40126
293.15 K, φ1 = 0.6751	1.416
293.15 K, φ1 = 0.7686	1.42667
293.15 K, φ1 = 0.828	1.43333
293.15 K, φ1 = 0.8763	1.43873
293.15 K, φ1 = 0.9159	1.44307
293.15 K, φ1 = 0.9334	1.445
293.15 K, φ1 = 0.9732	1.44949
293.15 K, φ1 = 1	1.45248
303.15 K, φ1 = 0.0958	1.33885
303.15 K, φ1 = 0.2025	1.35407
303.15 K, φ1 = 0.2756	1.364
303.15 K, φ1 = 0.3528	1.37406
303.15 K, φ1 = 0.4508	1.38641
303.15 K, φ1 = 0.5501	1.39855
303.15 K, φ1 = 0.6751	1.41337
303.15 K, φ1 = 0.7686	1.42402
303.15 K, φ1 = 0.828	1.43069
303.15 K, φ1 = 0.8763	1.43606
303.15 K, φ1 = 0.9159	1.44042
303.15 K, φ1 = 0.9334	1.44233
303.15 K, φ1 = 0.9732	1.4468
303.15 K, φ1 = 1	1.44976
313.15 K, φ1 = 0.0948	1.33503
313.15 K, φ1 = 0.2006	1.3505
313.15 K, φ1 = 0.2756	1.36083
313.15 K, φ1 = 0.3501	1.37069
313.15 K, φ1 = 0.4478	1.38319
313.15 K, φ1 = 0.5471	1.39542
313.15 K, φ1 = 0.6725	1.41032
313.15 K, φ1 = 0.7665	1.4211
313.15 K, φ1 = 0.8262	1.42784
313.15 K, φ1 = 0.875	1.4333
313.15 K, φ1 = 0.915	1.43765
313.15 K, φ1 = 0.9327	1.43961
313.15 K, φ1 = 0.9729	1.44409
313.15 K, φ1 = 1	1.44706
323.15 K, φ1 = 0.0942	1.332
323.15 K, φ1 = 0.1995	1.34774
323.15 K, φ1 = 0.2718	1.35784
323.15 K, φ1 = 0.3485	1.3681
323.15 K, φ1 = 0.4461	1.38056
323.15 K, φ1 = 0.5454	1.39283
323.15 K, φ1 = 0.6709	1.40773
323.15 K, φ1 = 0.7652	1.41853
323.15 K, φ1 = 0.8253	1.42521
323.15 K, φ1 = 0.8742	1.43058
323.15 K, φ1 = 0.9144	1.43492
323.15 K, φ1 = 0.9322	1.43687
323.15 K, φ1 = 0.9727	1.44133
323.15 K, φ1 = 1	1.44425

CCCC[n+]1ccc(C)cc1.F[B-](F)(F)F [1-butyl-4-methylpyridinium tetrafluoroborate]
[1]
Conditions	refractive index
293.15 K	1.45386
303.15 K	1.45114
313.15 K	1.44841
323.15 K	1.44571

CCCC[n+]1ccccc1.F[B-](F)(F)F [1-butylpyridinium tetrafluoroborate]
[1]
Conditions	refractive index
293.15 K	1.44719
303.15 K	1.44454
313.15 K	1.4419
323.15 K	1.43924
